Results taken from US4638005A, “Monoquaternized pyrazinium compounds and their use as electron carriers in photosynthetic processes” (The Coca-Cola Company, priority 1983, dated 1987).

What was measured:
[1] = target: T1, nitrogenase (Azotobacter vinelandii, UniProt P00459); assay: Chloroplast-coupled reduction of acetylene to ethylene by nitrogenase (electron carrier bioassay of Benemann); type: biochemical; settings: for ACTIVITY RELATIVE TO FERREDOXIN (%) / ACTIVITY (nmoles C2 H4 /mg protein/min): Table I; for ACTIVITY RELATIVE TO FERREDOXIN (%): acetylene reduction to ethylene; for ACTIVITY (nmoles C2 H4 /mg protein/min): illuminated spinach chloroplasts, synthetic carriers 2 mM, clostridial ferredoxin 0.2 mM; for ETHYLENE FORMATION % Ferredoxin Activity: Table III ranking; for % FERREDOXIN ACTIVITY: Table IV, acetylene reduction
T1 construct: the nitrogenase sample was prepared from a culture of Azotobacter vinelandii; endogenous in cells; host or cells: Azotobacter vinelandii culture; French press lysate, 10,000 x g supernatant (crude)
Protocol: The activity of the pyrazinium compounds as electron carriers in an illuminated photocouple process using isolated chloroplasts and the reductive enzyme catalyst nitrogenease has been determined using the bioassay of Benemann, et al., Proc. Natl. Acad. Sci. USA, 64, 1079(1969). In this method, the carrier activity is measured as a function of nitrogenase reduction of acetylene to ethylene, the rate of production of ethylene being the direct measurement.
(§1) For the bioassay, the nitrogenase sample was prepared from a culture of Azotobacter vinelandii grown to a cell density of about 1 g/l. The cells harvested by centrifugation were broken in a French press, cell debris spun off at 10,000 XG for 1 hr., and the supernatant containing 40 mg/ml protein was used in the bioassay experiments. […] chloroplasts from spinach leaves as described by Benemann were also used. The synthetic carriers were tested in aqueous solutions at concentrations of 2 mM, while the standard, clostridial ferredoxin, was used in 0.2 mM aqueous solution. The concentrations of carriers in the assay mixtures were chosen so as to guarantee carrier saturation conditions. Thus, the observed differences in rates of ethylene production from the substrate acetylene were assigned directly to variations in the efficiency of electron transfer from the illuminated chloroplast to the nitrogenase. The results obtained for acetylene reduction (nitrogen fixation) using the pyrazinium compounds of Examples 1 through 42 are summarized in Table I and are expressed as nmoles of ethylene produced per mg protein per minute.

[2] = Polarographic half-wave potential (first wave reduction); type: physicochemical; settings: 0.1 M phosphate buffer pH 7.55, 25° C.
Text: Sci., 65, 1471(1976). Therefore, it was of interest to measure polarographically the half-wave potentials of the several pyrazinium salts under consideration, to determine the possible effect of structure upon their redox potentials.

[3] = target: T1, nitrogenase; assay: Chloroplast-coupled evolution of hydrogen by nitrogenase in the absence of substrate; type: biochemical; settings: Table II, hydrogen evolution; for ACTIVITY (nmoles H2 /mg protein/min): no nitrogen or acetylene, synthetic carriers 2 mM, ferredoxin 0.2 mM
Protocol: as §1
It has been recognized for sometime the connection existing between hydrogen metabolism and nitrogen fixation. […] When nitrogenase was purified extensively, as mentioned above, it became apparent that in addition to nitrogen, nitrogenase also catalyzed the reduction of protons. The evolution of hydrogen is particularly active in the absence of the normal substrates for nitrogenase (nitrogen, acetylene, cyanide, azide, etc.), and is dependent upon a strong reductant and adenosine triphosphate hydrolysis. Since hydrogen evolution is not inhibited by CO, but reduction of nitrogen and other substrates is, the reduction of protons presumably occurs at a site other than the site of nitrogen reduction, H. C. Winter, et. al., Ann Rev. Biochem, 45, 409 (1976). Accordingly, with the same bioassay system and with exclusion of nitrogen, and acetylene, the activity of the pyrazinium compounds to act as carriers for production of hydrogen has been determined.
The results of this study, which are summarized in Table II, indicate that the pyrazinium salts that mediate the reduction of acetylene with electrons from the photoexcited chloroplast, are also mediating the reduction of protons by the nitrogenase.

T1 sequence (P00459 2-290 limits assumed): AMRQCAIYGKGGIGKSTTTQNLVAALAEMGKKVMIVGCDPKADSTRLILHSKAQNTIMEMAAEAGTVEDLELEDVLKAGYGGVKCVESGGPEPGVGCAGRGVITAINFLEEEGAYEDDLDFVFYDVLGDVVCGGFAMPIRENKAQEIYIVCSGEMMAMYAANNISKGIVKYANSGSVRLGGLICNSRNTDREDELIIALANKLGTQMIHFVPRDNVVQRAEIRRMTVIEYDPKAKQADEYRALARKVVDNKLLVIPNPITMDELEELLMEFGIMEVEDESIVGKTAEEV

Structure (SMILES)	ACTIVITY RELATIVE TO FERREDOXIN (%) [1]	ACTIVITY (nmoles C2 H4 /mg protein/min) [1]	ETHYLENE FORMATION % Ferredoxin Activity [1]	% FERREDOXIN ACTIVITY [1]	E1/2 vs. SCE (mV) [2]	ACTIVITY RELATIVE TO FERREDOXIN (%) [3]	ACTIVITY (nmoles H2 /mg protein/min) [3]
Cc1cnc(CS(=O)(=O)[O-])c[n+]1C [Compound 3200]	98%	13.3 nmoles C2 H4 /mg protein/min	98%	98%	-673 mV	161%	43.1 nmoles H2 /mg protein/min
C[n+]1ccnc(CCCCS(=O)(=O)[O-])c1 [Compound 1801]	79%	10.7 nmoles C2 H4 /mg protein/min	79%	79%	-676 mV	106%	28.4 nmoles H2 /mg protein/min
Cc1c[n+](C)cc(CO)n1.[I-] [Compound 400, 1-Methyl-3-hydroxymethyl-5-methylpyrazinium iodide]	26%	3.5 nmoles C2 H4 /mg protein/min	26%	26%	-738 mV	74%	19.7 nmoles H2 /mg protein/min
Cc1c[n+](CCCS(=O)(=O)[O-])ccn1 [Compound 600]	64%	8.7 nmoles C2 H4 /mg protein/min	64%	64%	-651 mV	106%	28.4 nmoles H2 /mg protein/min
Cc1c[n+](C)cc(CS(=O)(=O)[O-])n1 [Compound 3000]	99%	13.4 nmoles C2 H4 /mg protein/min	99%	99%	-738 mV	124%	33.1 nmoles H2 /mg protein/min

The remaining lines, values ahead:

ACTIVITY RELATIVE TO FERREDOXIN (%) [1]	ACTIVITY (nmoles C2 H4 /mg protein/min) [1]	ETHYLENE FORMATION % Ferredoxin Activity [1]	% FERREDOXIN ACTIVITY [1]	E1/2 vs. SCE (mV) [2]	ACTIVITY RELATIVE TO FERREDOXIN (%) [3]	ACTIVITY (nmoles H2 /mg protein/min) [3]	Structure (SMILES)
5%	0.7 nmoles C2 H4 /mg protein/min	5%	5%	-575 mV	19%	5.0 nmoles H2 /mg protein/min	CCC(=O)Cc1c[n+](C)ccn1 [Compound 3500, 1-Methyl-3-(2-oxybutyl)pyrazinium iodide]
98%	13.2 nmoles C2 H4 /mg protein/min	98%	98%	-730 mV	154%	41.2 nmoles H2 /mg protein/min	C[n+]1ccnc(CCS(=O)(=O)[O-])c1 [Compound 2600]
5%	0.7 nmoles C2 H4 /mg protein/min	5%	5%	-696 mV	14%	3.7 nmoles H2 /mg protein/min	Cc1c[n+](C)ccn1 [Compound 4300]
